Among the data in patent publication US10570129B2 (Zoetis Services LLC, priority 2015, dated 2020) are minimal effective concentration and inhibition in vivo values, retold here.

In one test the test system is D. immitis microfilariae. Briefly: Dirofilaria immitis, microfilariae (DiMF) in vitro motility assay. The class given is cell-based. The following applies: Dirofilaria immitis, 72 h, read-out: DiMF minimally effective dose (MEC).
The test system of test [1] is Trichostrongylus colubriformis. As to the kind of experiment: Jird efficacy model. In kind it is in vivo. The following applies: Trichostrongylus colubriformis, sc, 96 h, read-out: Jird % (percentage efficacy).
A further test relates to Haemonchus contortus L3. As to the kind of experiment: microbe, parasite or virus in culture. In kind it is cell-based. The conditions noted are these: Haemonchus contortus, 96 h, read-out: HcL3 Minimal Effective Concentration (MEC).

On to `N#Cc1ccc(/C=C/CN2CCc3c(c4cc(C(F)(F)F)ccc4n3C(=O)NCc3ccnc(F)c3)C2)cc1` [Example 420, (E)-2-(3-(4-cyanophenyl)allyl)-N-((2-fluoropyridin-4-yl)methyl)-8-(trifluoromethyl)-1,2,3,4-tetrahydro-5H-pyrido[4,3-b]indole-5-carboxamide], for which the minimal effective concentration with D. immitis microfilariae amounted to 14.1 µM; in the test with Haemonchus contortus L3, 2.8 µM. Besides, the inhibition in vivo at 10 mg/kg in test [1] was 100%.

With `O=C(NCc1ccnc(Cl)c1)n1c2c(c3cc(N4CCOCC4)ccc31)CN(C/C=C/c1ccc(Cl)c(F)c1)CC2` [Example 504, (E)-2-(3-(4-chloro-3-fluorophenyl)allyl)-N-((2-chloropyridin-4-yl)methyl)-8-morpholino-1,2,3,4-tetrahydro-5H-pyrido[4,3-b]indole-5-carboxamide], the minimal effective concentration in the test with D. immitis microfilariae was found to be 10 µM; with Haemonchus contortus L3 it was 5.7 µM. Also, the inhibition in vivo at 10 mg/kg in test [1] amounted to 100%.

As to `N#Cc1ccc2c(c1)c1c(n2C(=O)NCc2ccnc(Cl)c2)CCN(C/C=C/c2ccc(F)cc2F)C1` [Example 88, (E)-N-((2-chloropyridin-4-yl)methyl)-8-cyano-2-(3-(2,4-difluorophenyl)allyl)-1,2,3,4-tetrahydro-5H-pyrido[4,3-b]indole-5-carboxamide], the values for the minimal effective concentration with D. immitis microfilariae and in the test with Haemonchus contortus L3 were 3.3 µM and 0.1 µM, respectively. Besides, the inhibition in vivo at 10 mg/kg in test [1] was determined as 99%.

As to `O=C(NCc1ccnc(Cl)c1)n1c2c(c3cc(N4CCOCC4)ccc31)CN(C/C=C/c1ccc(Cl)cc1)CC2` [Example 505, (E)-2-(3-(4-chlorophenyl)allyl)-N-((2-chloropyridin-4-yl)methyl)-8-morpholino-1,2,3,4-tetrahydro-5H-pyrido[4,3-b]indole-5-carboxamide], the minimal effective concentration was determined as 13.5 µM in the test on D. immitis microfilariae and 10 µM in the test on Haemonchus contortus L3. For the same compound, the inhibition in vivo at 10 mg/kg in test [1] was determined as 100%.

With `O=C(NCc1ccnc(F)c1)n1c2c(c3cc(F)c(Cl)cc31)CN(C/C=C/c1ccc(F)c(F)c1)CC2` [Example 314, (E)-7-chloro-2-(3-(3,4-difluorophenyl)allyl)-8-fluoro-N-((2-fluoropyridin-4-yl)methyl)-1,2,3,4-tetrahydro-5H-pyrido[4,3-b]indole-5-carboxamide], the minimal effective concentration with D. immitis microfilariae worked out at 3.3 µM; with Haemonchus contortus L3 it was 1 µM. For the same compound, in test [1], the inhibition in vivo at 10 mg/kg worked out at 100%.

Consider `N#Cc1ccc2c(c1)c1c(n2C(=O)NCc2ccnc(F)c2)CCN(C/C=C/c2ccc(Cl)c(Cl)c2)C1` [Example 122, (E)-8-cyano-2-(3-(3,4-dichlorophenyl)allyl)-N-((2-fluoropyridin-4-yl)methyl)-1,2,3,4-tetrahydro-5H-pyrido[4,3-b]indole-5-carboxamide], for which the figures for the minimal effective concentration in the test on D. immitis microfilariae and in the test on Haemonchus contortus L3 were 18.2 µM and 1 µM, respectively. The inhibition in vivo at 10 mg/kg in test [1] stood at 100%.

For `O=C(NCc1ccnc(Cl)c1)n1c2c(c3cc(Br)ccc31)CN(C/C=C/c1ccc(Cl)cc1)CC2` [Example 185, (E)-8-bromo-2-(3-(4-chlorophenyl)allyl)-N-((2-chloropyridin-4-yl)methyl)-1,2,3,4-tetrahydro-5H-pyrido[4,3-b]indole-5-carboxamide], the minimal effective concentration with D. immitis microfilariae came out at 7.7 µM; with Haemonchus contortus L3, 0.7 µM. In addition, in test [1], the inhibition in vivo at 10 mg/kg turned out to be 100%.

For the compound `O=C(NCc1ccnc(Cl)c1)n1c2c(c3c(Br)cccc31)CN(C/C=C/c1ccc(Cl)cc1)CC2` [Example 444, (E)-9-bromo-2-(3-(4-chlorophenyl)allyl)-N-((2-chloropyridin-4-yl)methyl)-1,2,3,4-tetrahydro-5H-pyrido[4,3-b]indole-5-carboxamide], the results for the minimal effective concentration in the test on D. immitis microfilariae and in the test on Haemonchus contortus L3 were 2.4 µM and 0.7 µM, respectively. In test [1], the inhibition in vivo at 10 mg/kg was 100%.

For the compound `O=C(NCc1ccnc(Cl)c1)n1c2c(c3cc(Cl)ccc31)CN(C/C=C/c1ccc(F)c(Cl)c1)CC2` [Example 239, (E)-8-chloro-2-(3-(3-chloro-4-fluorophenyl)allyl)-N-((2-chloropyridin-4-yl)methyl)-1,2,3,4-tetrahydro-5H-pyrido[4,3-b]indole-5-carboxamide], the minimal effective concentration in the test on D. immitis microfilariae is 3.3 µM; with Haemonchus contortus L3, 0.3 µM. In test [1], the inhibition in vivo at 10 mg/kg turned out to be 98%.

For the compound `O=C(NCc1ccnc(F)c1)n1c2c(c3ccc(OC(F)(F)F)cc31)CN(C/C=C/c1cc(F)c(F)c(F)c1)CC2` [Example 377, (E)-N-((2-fluoropyridin-4-yl)methyl)-7-(trifluoromethoxy)-2-(3-(3,4,5-trifluorophenyl)allyl)-1,2,3,4-tetrahydro-5H-pyrido[4,3-b]indole-5-carboxamide], the minimal effective concentration in the test with D. immitis microfilariae worked out at 5.7 µM; with Haemonchus contortus L3, 0.3 µM. Besides, the inhibition in vivo at 10 mg/kg in test [1] was determined as 99%.

As to `N#Cc1ccc2c3c(n(C(=O)NCc4ccnc(Cl)c4)c2c1)CCN(C/C=C/c1cc(F)c(Cl)c(F)c1)C3` [Example 1, (E)-2-(3-(4-chloro-3,5-difluorophenyl)allyl)-N-((2-chloropyridin-4-yl)methyl)-7-cyano-1,2,3,4-tetrahydro-5H-pyrido[4,3-b]indole-5-carboxamide], the minimal effective concentration in the test on D. immitis microfilariae and in the test on Haemonchus contortus L3 was 0.2 µM each time. The inhibition in vivo at 10 mg/kg in test [1] amounted to 100%.

With `O=C(NCc1ccnc(Cl)c1)n1c2c(c3cc(Cl)ccc31)CN(C/C=C/c1ccc(F)cc1F)CC2` [Example 238, (E)-8-chloro-N-((2-chloropyridin-4-yl)methyl)-2-(3-(2,4-difluorophenyl)allyl)-1,2,3,4-tetrahydro-5H-pyrido[4,3-b]indole-5-carboxamide], the minimal effective concentration in the test on D. immitis microfilariae was 5.7 µM; in the test with Haemonchus contortus L3, 1 µM. The inhibition in vivo at 10 mg/kg in test [1] was determined as 100%.

Turning to `O=C(NCc1ccnc(Cl)c1)n1c2c(c3c(Cl)c(F)ccc31)CN(C/C=C/c1ccc(F)cc1)CC2` [Example 307, (E)-9-chloro-N-((2-chloropyridin-4-yl)methyl)-8-fluoro-2-(3-(4-fluorophenyl)allyl)-1,2,3,4-tetrahydro-5H-pyrido[4,3-b]indole-5-carboxamide], the minimal effective concentration in the test on D. immitis microfilariae was 3.3 µM; with Haemonchus contortus L3, 0.5 µM. Further, the inhibition in vivo at 10 mg/kg in test [1] came to 100%.

Consider `O=C(NCc1ccnc(F)c1)n1c2c(c3ccc(OC(F)(F)F)cc31)CN(C/C=C/c1ccc(Cl)cc1)CC2` [Example 379, (E)-2-(3-(4-chlorophenyl)allyl)-N-((2-fluoropyridin-4-yl)methyl)-7-(trifluoromethoxy)-1,2,3,4-tetrahydro-5H-pyrido[4,3-b]indole-5-carboxamide], for which the values for the minimal effective concentration with D. immitis microfilariae and with Haemonchus contortus L3 were 5.7 µM and 1 µM, respectively. The inhibition in vivo at 10 mg/kg in test [1] came out at 100%.

With `N#Cc1ccc2c(c1)c1c(n2C(=O)NCc2ccnc(F)c2)CCN(C/C=C/c2ccc(F)cc2F)C1` [Example 115, (E)-8-cyano-2-(3-(2,4-difluorophenyl)allyl)-N-((2-fluoropyridin-4-yl)methyl)-1,2,3,4-tetrahydro-5H-pyrido[4,3-b]indole-5-carboxamide], the minimal effective concentration with D. immitis microfilariae worked out at 3.3 µM; with Haemonchus contortus L3, 0.1 µM. Besides, the inhibition in vivo at 10 mg/kg in test [1] was found to be 100%.
